Results published in PMC9288506, “Compounds activating VCP D1 ATPase enhance both autophagic and proteasomal neurotoxic protein clearance” (Nature Communications, 2022).

Legend:
Experiment in all cases: biochemical
Set-up in all cases: Thermo Fisher in vitro kinase panel, per cent inhibition of kinase activity at 10 uM
[1] = target: PDGFRB (PDGFR beta) (Homo sapiens, UniProt P09619)
Experimental: (§1) Kinase profiling of SMER28 and analogs SMER28 and analogs were tested at 10 µM in a panel of 123 kinases at ThermoFisher Scientific. Follow-up of selected kinases for SMER28 and analogs was also performed at ThermoFisher Scientific. Data are shown in Supplementary Data 2 and 3. […] An inhibition of PIK3C could induce autophagy, mediated by signaling through the AKT/mTOR axis[45].

[2] = target: CSNK1G1 (CK1 gamma 1) (Homo sapiens, UniProt Q9HCP0)
Experimental: as §1

[3] = target: INSRR (IRR) (Homo sapiens, UniProt P14616)
Experimental: as §1

[4] = target: PRKCE (PKC epsilon) (Homo sapiens, UniProt Q02156)
Chain of PRKCE (PKC epsilon) (Q02156 whole entry): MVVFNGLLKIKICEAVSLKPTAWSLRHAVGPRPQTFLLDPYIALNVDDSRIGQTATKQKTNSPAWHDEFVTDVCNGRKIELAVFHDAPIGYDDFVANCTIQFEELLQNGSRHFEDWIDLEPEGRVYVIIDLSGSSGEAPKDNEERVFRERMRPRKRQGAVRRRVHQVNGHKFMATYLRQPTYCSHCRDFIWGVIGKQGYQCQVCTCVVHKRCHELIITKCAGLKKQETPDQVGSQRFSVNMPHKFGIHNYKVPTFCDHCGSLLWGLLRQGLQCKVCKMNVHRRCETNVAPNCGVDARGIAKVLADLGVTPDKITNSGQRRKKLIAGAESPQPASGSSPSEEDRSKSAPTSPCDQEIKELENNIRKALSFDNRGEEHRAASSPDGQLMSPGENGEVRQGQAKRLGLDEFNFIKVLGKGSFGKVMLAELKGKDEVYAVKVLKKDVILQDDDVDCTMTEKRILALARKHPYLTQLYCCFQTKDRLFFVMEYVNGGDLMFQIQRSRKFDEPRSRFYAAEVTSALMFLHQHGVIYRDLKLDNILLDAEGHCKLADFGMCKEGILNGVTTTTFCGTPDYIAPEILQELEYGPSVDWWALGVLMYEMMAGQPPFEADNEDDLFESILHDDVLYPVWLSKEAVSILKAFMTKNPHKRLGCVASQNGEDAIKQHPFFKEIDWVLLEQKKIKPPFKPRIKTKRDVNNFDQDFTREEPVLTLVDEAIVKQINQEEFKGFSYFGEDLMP
Experimental: as §1

[5] = target: MARK1 (MARK) (Homo sapiens, UniProt Q9P0L2)
Chain of MARK1 (MARK) (Q9P0L2 whole entry): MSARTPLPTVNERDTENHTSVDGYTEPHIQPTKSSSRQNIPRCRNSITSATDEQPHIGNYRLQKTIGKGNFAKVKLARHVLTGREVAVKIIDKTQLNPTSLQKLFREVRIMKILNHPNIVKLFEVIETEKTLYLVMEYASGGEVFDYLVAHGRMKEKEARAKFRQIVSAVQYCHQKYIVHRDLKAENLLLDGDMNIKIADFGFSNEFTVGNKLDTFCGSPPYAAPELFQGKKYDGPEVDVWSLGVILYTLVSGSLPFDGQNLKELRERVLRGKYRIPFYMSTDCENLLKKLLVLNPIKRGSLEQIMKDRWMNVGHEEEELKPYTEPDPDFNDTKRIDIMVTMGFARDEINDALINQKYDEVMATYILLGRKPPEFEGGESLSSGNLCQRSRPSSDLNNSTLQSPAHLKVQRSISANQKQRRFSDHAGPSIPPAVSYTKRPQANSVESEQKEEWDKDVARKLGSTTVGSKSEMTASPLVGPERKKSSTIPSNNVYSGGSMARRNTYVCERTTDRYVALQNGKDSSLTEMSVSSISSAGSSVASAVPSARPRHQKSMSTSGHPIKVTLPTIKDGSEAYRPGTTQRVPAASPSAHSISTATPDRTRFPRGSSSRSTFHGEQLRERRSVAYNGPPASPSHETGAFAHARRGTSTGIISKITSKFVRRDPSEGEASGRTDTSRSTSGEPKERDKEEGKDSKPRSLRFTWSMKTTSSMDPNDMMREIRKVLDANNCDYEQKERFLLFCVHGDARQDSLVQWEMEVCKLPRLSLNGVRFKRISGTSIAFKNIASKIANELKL
Experimental: as §1

[6] = target: T1, AMPK A2/B1/G1 (Homo sapiens, UniProt P54646)
T1 construct: gene PRKAA2
Experimental: as §1

[7] = target: NTRK1 (TRKA) (Homo sapiens, UniProt P04629)
Experimental: as §1

[8] = target: MKNK2 (MNK2) (Homo sapiens, UniProt Q9HBH9)
Experimental: as §1

[9] = target: JAK2 (Homo sapiens, UniProt O60674)
Experimental: as §1

[10] = target: ROCK1 (Homo sapiens, UniProt Q13464)
Experimental: as §1

[11] = target: FES (FPS) (Homo sapiens, UniProt P07332)
Experimental: as §1

[12] = target: LCK (Homo sapiens, UniProt P06239)
Experimental: as §1

[13] = target: T2, PDK1 (Homo sapiens, UniProt O15530)
T2 construct: gene PDPK1
Experimental: as §1

[14] = target: AURKC (Aurora C) (Homo sapiens, UniProt Q9UQB9)
Experimental: as §1

[15] = target: PLK1 (Homo sapiens, UniProt P53350)
Experimental: as §1

[16] = target: BLK (Homo sapiens, UniProt P51451)
Experimental: as §1

[17] = target: ABL2 (Arg) (Homo sapiens, UniProt P42684)
Chain of ABL2 (Arg) (P42684 whole entry): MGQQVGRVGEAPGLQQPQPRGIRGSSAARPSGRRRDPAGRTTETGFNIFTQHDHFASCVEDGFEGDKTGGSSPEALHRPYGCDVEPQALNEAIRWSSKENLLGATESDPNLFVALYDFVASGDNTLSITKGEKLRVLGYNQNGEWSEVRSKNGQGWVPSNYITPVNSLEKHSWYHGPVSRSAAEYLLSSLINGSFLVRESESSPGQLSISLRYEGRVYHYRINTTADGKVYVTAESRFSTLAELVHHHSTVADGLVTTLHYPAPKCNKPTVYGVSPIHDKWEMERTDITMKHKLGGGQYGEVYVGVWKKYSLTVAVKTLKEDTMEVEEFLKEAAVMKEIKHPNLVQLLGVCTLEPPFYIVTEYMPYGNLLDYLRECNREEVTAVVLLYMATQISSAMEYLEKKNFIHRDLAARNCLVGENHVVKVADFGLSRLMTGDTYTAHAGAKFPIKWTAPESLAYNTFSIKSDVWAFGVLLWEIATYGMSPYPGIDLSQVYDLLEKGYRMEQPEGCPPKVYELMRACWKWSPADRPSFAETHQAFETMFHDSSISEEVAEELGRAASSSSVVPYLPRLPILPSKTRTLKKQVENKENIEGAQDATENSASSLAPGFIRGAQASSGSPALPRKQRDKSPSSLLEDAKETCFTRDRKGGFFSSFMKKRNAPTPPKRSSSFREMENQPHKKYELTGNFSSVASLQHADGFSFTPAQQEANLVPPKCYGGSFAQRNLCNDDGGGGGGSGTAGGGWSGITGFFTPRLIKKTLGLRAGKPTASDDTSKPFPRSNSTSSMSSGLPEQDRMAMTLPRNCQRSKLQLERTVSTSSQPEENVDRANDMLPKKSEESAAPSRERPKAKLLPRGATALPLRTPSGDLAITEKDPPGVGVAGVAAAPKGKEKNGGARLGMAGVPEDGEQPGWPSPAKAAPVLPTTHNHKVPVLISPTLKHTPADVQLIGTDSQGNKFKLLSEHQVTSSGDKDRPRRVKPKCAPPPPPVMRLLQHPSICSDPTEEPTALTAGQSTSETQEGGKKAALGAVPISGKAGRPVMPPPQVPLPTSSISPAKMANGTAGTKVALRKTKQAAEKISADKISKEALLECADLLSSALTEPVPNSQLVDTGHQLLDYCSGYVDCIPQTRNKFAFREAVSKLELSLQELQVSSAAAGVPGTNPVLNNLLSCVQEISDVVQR
Experimental: as §1

[18] = target: MARK2 (Homo sapiens, UniProt Q7KZI7)
Experimental: as §1

[19] = target: ROS1 (Homo sapiens, UniProt P08922)
Chain of ROS1 (P08922 whole entry): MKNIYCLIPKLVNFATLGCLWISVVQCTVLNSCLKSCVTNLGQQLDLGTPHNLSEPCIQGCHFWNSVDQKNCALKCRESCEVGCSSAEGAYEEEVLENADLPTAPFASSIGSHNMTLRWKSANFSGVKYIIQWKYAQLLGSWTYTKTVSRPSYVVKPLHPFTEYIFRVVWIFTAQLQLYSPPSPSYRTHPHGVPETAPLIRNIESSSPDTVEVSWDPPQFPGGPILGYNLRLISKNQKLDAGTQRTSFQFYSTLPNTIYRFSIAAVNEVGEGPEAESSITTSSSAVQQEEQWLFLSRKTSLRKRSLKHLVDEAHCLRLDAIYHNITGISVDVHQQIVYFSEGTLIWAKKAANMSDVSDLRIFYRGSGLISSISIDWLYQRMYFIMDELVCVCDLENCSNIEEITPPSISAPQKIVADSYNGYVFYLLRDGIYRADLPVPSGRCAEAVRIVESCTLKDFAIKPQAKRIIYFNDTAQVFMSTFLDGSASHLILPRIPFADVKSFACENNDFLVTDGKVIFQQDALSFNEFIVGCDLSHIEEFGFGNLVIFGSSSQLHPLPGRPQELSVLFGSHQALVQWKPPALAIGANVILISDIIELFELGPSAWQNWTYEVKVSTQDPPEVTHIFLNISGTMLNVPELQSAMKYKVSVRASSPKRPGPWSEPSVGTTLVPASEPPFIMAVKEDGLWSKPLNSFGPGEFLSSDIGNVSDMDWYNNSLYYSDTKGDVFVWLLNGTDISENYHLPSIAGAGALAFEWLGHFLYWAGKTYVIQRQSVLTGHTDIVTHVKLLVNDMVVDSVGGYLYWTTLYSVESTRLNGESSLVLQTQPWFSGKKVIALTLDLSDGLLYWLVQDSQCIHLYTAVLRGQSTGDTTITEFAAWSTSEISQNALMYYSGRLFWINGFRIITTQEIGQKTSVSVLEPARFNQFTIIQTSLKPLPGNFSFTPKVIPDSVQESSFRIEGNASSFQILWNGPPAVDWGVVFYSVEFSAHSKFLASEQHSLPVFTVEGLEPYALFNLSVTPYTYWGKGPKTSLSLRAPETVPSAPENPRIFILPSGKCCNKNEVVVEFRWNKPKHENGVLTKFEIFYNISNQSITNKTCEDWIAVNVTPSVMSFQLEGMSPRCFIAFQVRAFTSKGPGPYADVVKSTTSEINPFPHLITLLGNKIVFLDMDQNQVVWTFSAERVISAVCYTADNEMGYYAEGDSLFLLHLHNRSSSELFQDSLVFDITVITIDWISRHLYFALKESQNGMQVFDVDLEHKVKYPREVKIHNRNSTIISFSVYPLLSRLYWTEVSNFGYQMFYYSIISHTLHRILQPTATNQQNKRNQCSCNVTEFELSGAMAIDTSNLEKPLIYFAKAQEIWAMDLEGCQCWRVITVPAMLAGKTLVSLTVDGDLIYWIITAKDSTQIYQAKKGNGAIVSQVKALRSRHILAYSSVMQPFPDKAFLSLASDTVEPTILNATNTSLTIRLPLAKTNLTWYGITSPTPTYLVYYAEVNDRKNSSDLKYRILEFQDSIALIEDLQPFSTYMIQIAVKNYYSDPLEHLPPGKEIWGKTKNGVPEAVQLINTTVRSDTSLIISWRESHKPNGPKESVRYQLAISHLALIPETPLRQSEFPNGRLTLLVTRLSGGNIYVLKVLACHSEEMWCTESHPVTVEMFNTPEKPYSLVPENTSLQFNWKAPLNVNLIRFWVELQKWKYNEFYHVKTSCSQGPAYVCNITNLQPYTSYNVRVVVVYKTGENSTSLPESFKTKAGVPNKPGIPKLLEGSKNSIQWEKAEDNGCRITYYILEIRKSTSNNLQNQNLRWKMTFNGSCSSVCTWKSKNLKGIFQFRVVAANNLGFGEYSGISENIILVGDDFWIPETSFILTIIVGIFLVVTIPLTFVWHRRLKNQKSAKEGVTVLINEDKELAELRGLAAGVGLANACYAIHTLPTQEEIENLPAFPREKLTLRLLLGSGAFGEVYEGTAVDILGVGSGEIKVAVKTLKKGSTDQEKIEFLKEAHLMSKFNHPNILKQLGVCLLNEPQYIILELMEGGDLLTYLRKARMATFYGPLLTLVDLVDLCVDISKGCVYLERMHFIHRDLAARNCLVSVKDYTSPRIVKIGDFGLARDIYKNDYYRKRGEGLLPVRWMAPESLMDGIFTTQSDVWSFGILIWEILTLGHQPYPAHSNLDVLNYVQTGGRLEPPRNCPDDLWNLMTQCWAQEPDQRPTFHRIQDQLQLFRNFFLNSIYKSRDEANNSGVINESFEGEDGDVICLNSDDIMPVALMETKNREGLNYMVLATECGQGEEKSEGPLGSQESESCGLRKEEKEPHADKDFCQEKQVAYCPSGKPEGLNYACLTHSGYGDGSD
Experimental: as §1

[20] = target: PTK6 (Brk) (Homo sapiens, UniProt Q13882)
Experimental: as §1

[21] = target: T3, MAPK14 (p38 alpha) Direct (Homo sapiens, UniProt Q16539)
T3 construct: Direct
Experimental: as §1

[22] = target: ABL1 (Homo sapiens, UniProt P00519)
Experimental: as §1

[23] = target: NUAK1 (ARK5) (Homo sapiens, UniProt O60285)
Experimental: as §1

[24] = target: MAP2K1 (MEK1) (Homo sapiens, UniProt Q02750)
Experimental: as §1

[25] = target: EPHA5 (Homo sapiens, UniProt P54756)
Experimental: as §1

In the case of `C=CCNc1ncnc2ccc(Br)cc12` [SMER28], the inhibition at 10 µM [1] is reported as 8%, the inhibition at 10 µM [2] is reported as 31% and the inhibition at 10 µM [3] is reported as 5%. The inhibition at 10 µM [4] was 18%, the inhibition at 10 µM [5] was 11% and the inhibition at 10 µM [6] was 12%. For the same compound, the inhibition at 10 µM [7] was 33%, the inhibition at 10 µM [8] was 32% and the inhibition at 10 µM [9] was 3%. The inhibition at 10 µM [10] was -13%, the inhibition at 10 µM [11] was 8% and the inhibition at 10 µM [12] was 19%. The inhibition at 10 µM [13] was -7%, the inhibition at 10 µM [14] was -6% and the inhibition at 10 µM [15] was 11%. The inhibition at 10 µM [16] was 4%, the inhibition at 10 µM [17] was 3% and the inhibition at 10 µM [18] was 9%. The inhibition at 10 µM [19] was 26%, the inhibition at 10 µM [20] was 0% and the inhibition at 10 µM [21] was 7%. For the same compound, the inhibition at 10 µM [22] was 11%, the inhibition at 10 µM [23] was 40% and the inhibition at 10 µM [24] was 3%. It also gave an inhibition at 10 µM [25] of 7%.
